Experimental data: publication PMC11852049, “Impact of Hydrophobic, Hydrophilic, and Mucus-Binding Motifs on the Therapeutic Potential of Ceftazidime Analogs for Pulmonary Administration” (Antibiotics, 2025)
In brackets after ≈: the same amount, converted by molar mass.

Columns and labels:
[1] = test system: Burkholderia pseudomallei; assay: microbe, parasite or virus in culture; format: cell-based; conditions: for MIC: Burkholderia pseudomallei, 24 h, read-out: MIC Bp; for MIC Bp: 24 h at 37 °C, cation-adjusted Mueller–Hinton II broth, mean of two replicates
Escherichia coli = assay: microbe, parasite or virus in culture; format: cell-based; conditions: 24 h, read-out: MIC Ec
Pseudomonas aeruginosa = assay: microbe, parasite or virus in culture; format: cell-based; conditions: for MIC: Pseudomonas aeruginosa, 24 h, read-out: MIC Pa
[2] = Transepithelial transport assay (Papp), HBEC air–liquid interface cultures on Transwells; conditions: human, Papp (apparent permeability), mean ± standard deviation, apical to basal over 24 h, approx. 5 mg/mL apical
[3] = test system: Staphylococcus aureus Newman; assay: microbe, parasite or virus in culture; format: cell-based; conditions: for MIC: Staphylococcus aureus, NEWMAN, 24 h, read-out: MIC Sa
[4] = set-up: method as in PMID 29096171, PMID 7629560; conditions: delivered via injection; cited from earlier work
[5] = compound set 2, three donors (L8 excluded)

| SMILES | MIC [1] [µg/mL] | MIC (Escherichia coli) [µg/mL] | MIC (Pseudomonas aeruginosa) [µg/mL] | Papp at 24 h [2, 5] [×10⁻⁶ cm/s] | MIC [3] [µg/mL] | MIC Bp [1] [µg/mL] | MIC Pa (Pseudomonas aeruginosa) [µg/mL] | Papp at 24 h ([2]; compound set 1, three donors) [×10⁻⁶ cm/s] | MIC Sa [3] [µg/mL] | penetration ratio (PELF-to-total plasma concentration) [4] |
| --- | --- | --- | --- | --- | --- | --- | --- | --- | --- | --- |
| CC(C)(O/N=C(/C(=O)N[C@@H]1C(=O)N2C(C(=O)[O-])=C(C[n+]3ccccc3)CS[C@H]12)c1csc(N)n1)C(=O)NC(CCC(=O)O)C(=O)O (some centres unmarked) [Compound 13] | 200 (≈ 296 µM) | < 15 | 200 (≈ 296 µM) | 2.79 ± 0.91 | 200 (≈ 296 µM) | – | – | – | – | – |
| COCCOCCOCCOCCOCCOCCOCCOCCNC(=O)C(C)(C)O/N=C(/C(=O)N[C@@H]1C(=O)N2C(C(=O)[O-])=C(C[n+]3ccccc3)CS[C@H]12)c1csc(N)n1 [Compound 9] | > 200 | ≥ 100 | > 200 | – | 200 (≈ 219 µM) | ≥ 100 | ≥ 100 | 1.86 ± 0.39 | ≥ 100 | – |
| CC(C)(O/N=C(/C(=O)N[C@@H]1C(=O)N2C(C(=O)[O-])=C(C[n+]3ccccc3)CS[C@H]12)c1csc(N)n1)C(=O)NCCc1cc(O)c(O)cc1Cl [Compound 4] | 1.6 (≈ 2.23 µM) | < 15 | 19 (≈ 26.5 µM) | 2.94 ± 0.63 | 38 (≈ 53.1 µM) | < 60 | < 60 | – | – | – |
| CC(C)(O/N=C(\C(=O)N[C@@H]1C(=O)N2C(C(=O)[O-])=C(C[n+]3ccccc3)CS[C@H]12)c1csc(N)n1)C(=O)O [Ceftazidime pentahydrate, ceftazidime pentahydrate, reference compound] | 3 | 0.4 | 6 | 2.54 | 13 | – | – | 3.36 ± 0.18 | – | 20–30% |
| CCCCNC(=O)C(C)(C)O/N=C(/C(=O)N[C@@H]1C(=O)N2C(C(=O)[O-])=C(C[n+]3ccccc3)CS[C@H]12)c1csc(N)n1 [Compound 1, n-butyl-ceftazidime] | 200 (≈ 332 µM) | 100 (≈ 166 µM) | 200 (≈ 332 µM) | – | 6 (≈ 9.97 µM) | – | – | 1.91 ± 0.45 | – | – |
| COCCOCCOCCNC(=O)C(C)(C)O/N=C(/C(=O)N[C@@H]1C(=O)N2C(C(=O)[O-])=C(C[n+]3ccccc3)CS[C@H]12)c1csc(N)n1 [Compound 7] | > 200 | 100 (≈ 145 µM) | > 200 | 3.6 ± 1.1 | 50 (≈ 72.3 µM) | – | – | – | – | – |
| CC(C)(O/N=C(/C(=O)N[C@@H]1C(=O)N2C(C(=O)[O-])=C(C[n+]3ccccc3)CS[C@H]12)c1csc(N)n1)C(=O)NCCOCCOCCOCCOCCOCCNc1ccnc(N)n1 [Compound 15, PEG5-pyrimidin-2-amine-ceftazidime] | 200 (≈ 222 µM) | 38 (≈ 42.1 µM) | > 200 | – | 50 (≈ 55.4 µM) | – | – | 1.75 ± 0.06 | – | – |
| COCCOCCOCCOCCOCCNC(=O)C(C)(C)O/N=C(/C(=O)N[C@@H]1C(=O)N2C(C(=O)[O-])=C(C[n+]3ccccc3)CS[C@H]12)c1csc(N)n1 [Compound 8] | > 200 | ≥ 100 | > 200 | – | 100 (≈ 128 µM) | ≥ 100 | ≥ 100 | 2.23 ± 0.22 | ≥ 100 | – |
| CCN(CC)CCNC(=O)C(C)(C)O/N=C(/C(=O)N[C@@H]1C(=O)N2C(C(=O)[O-])=C(C[n+]3ccccc3)CS[C@H]12)c1csc(N)n1 [Compound 11] | 75 (≈ 116 µM) | 63 (≈ 97.7 µM) | 150 (≈ 233 µM) | – | 25 (≈ 38.8 µM) | – | – | 3.58 ± 0.5 | < 40 | – |
| CC(C)(O/N=C(/C(=O)N[C@@H]1C(=O)N2C(C(=O)[O-])=C(C[n+]3ccccc3)CS[C@H]12)c1csc(N)n1)C(=O)NCCc1ccccc1 [Compound 3] | 200 (≈ 308 µM) | 100 (≈ 154 µM) | 200 (≈ 308 µM) | 4.65 ± 0.86 | 3 (≈ 4.62 µM) | – | – | – | – | – |
| CC(C)(O/N=C(/C(=O)N[C@@H]1C(=O)N2C(C(=O)[O-])=C(C[n+]3ccccc3)CS[C@H]12)c1csc(N)n1)C(=O)NCCNc1ccnc(N)n1 [Compound 14] | > 200 | ≥ 100 | 100 (≈ 147 µM) | 2.03 ± 0.6 | > 200 | ≥ 100 | ≥ 100 | – | ≥ 100 | – |
| CN1CCN(CCNC(=O)C(C)(C)O/N=C(/C(=O)N[C@@H]2C(=O)N3C(C(=O)[O-])=C(C[n+]4ccccc4)CS[C@H]23)c2csc(N)n2)CC1 [Compound 12] | > 200 | ≥ 100 | > 200 | 2.6 ± 0.94 | > 200 | ≥ 100 | ≥ 100 | – | ≥ 100 | – |
| CC(C)(O/N=C(/C(=O)N[C@@H]1C(=O)N2C(C(=O)[O-])=C(C[n+]3ccccc3)CS[C@H]12)c1csc(N)n1)C(=O)NCCCCCCOCCCCc1ccccc1 [Compound 6] | > 200 | 100 (≈ 129 µM) | 200 (≈ 257 µM) | 2.45 ± 0.21 | 3 (≈ 3.86 µM) | – | – | – | – | – |
| CC(C)(O/N=C(/C(=O)N[C@@H]1C(=O)N2C(C(=O)[O-])=C(C[n+]3ccccc3)CS[C@H]12)c1csc(N)n1)C(=O)NCCCS(=O)(=O)c1ccc(B(O)O)cc1 [Compound 17] | 200 (≈ 259 µM) | 50 (≈ 64.8 µM) | 200 (≈ 259 µM) | 3.33 ± 0.36 | 13 (≈ 16.8 µM) | – | – | – | – | – |
| CC(C)(O/N=C(/C(=O)N[C@@H]1C(=O)N2C(C(=O)[O-])=C(C[n+]3ccccc3)CS[C@H]12)c1csc(N)n1)C(=O)NCCCSc1ccc(B(O)O)cc1 [Compound 16, 4-propylthiophenyl boronic acid-ceftazidime] | 200 (≈ 270 µM) | 50 (≈ 67.6 µM) | > 200 | 4.9 ± 1.4 | 3 (≈ 4.06 µM) | – | – | – | – | – |
| CC(C)(O/N=C(/C(=O)N[C@@H]1C(=O)N2C(C(=O)[O-])=C(C[n+]3ccccc3)CS[C@H]12)c1csc(N)n1)C(=O)NC1C(O)O[C@H](CO)[C@@H](O)[C@@H]1O (some centres unmarked) [Compound 10] | 38 (≈ 53.7 µM) | < 4 | 50 (≈ 70.6 µM) | 2.75 ± 0.68 | 150 (≈ 212 µM) | < 60 | < 60 | – | – | – |
| CC(C)(O/N=C(/C(=O)N[C@@H]1C(=O)N2C(C(=O)[O-])=C(C[n+]3ccccc3)CS[C@H]12)c1csc(N)n1)C(=O)NCCCS(=O)(=O)c1ccccc1 [Compound 5] | 150 (≈ 206 µM) | < 15 | 200 (≈ 275 µM) | 2.71 ± 0.93 | 13 (≈ 17.9 µM) | – | – | – | – | – |
| CC(C)(O/N=C(/C(=O)N[C@@H]1C(=O)N2C(C(=O)[O-])=C(C[n+]3ccccc3)CS[C@H]12)c1csc(N)n1)C(=O)NCCNC(=O)c1ccc(B(O)O)cc1 [Compound 18] | 50 (≈ 67.9 µM) | – | 50 (≈ 67.9 µM) | 2.21 ± 0.45 | 25 (≈ 33.9 µM) | < 60 | < 60 | – | – | – |
